Laboratory results as given in patent EP0840781B1, “METHODS AND DEVICES FOR THE REMOVAL OF PSORALENS FROM BLOOD PRODUCTS” (Cerus Corporation, priority 1995, dated 1996).
Where “and” joins values, the source holds several entries; their conditions need not be identical. Identical values can stand only once. Like-named read-outs stand apart in the source and are kept apart here. Each block holds one molecule with its values, some of them ahead of it.

Tests used:
[1] = HPLC retention time as rough estimate of hydrophobicity; type: physicochemical; settings: C-18 reversed phase column, methanol / 25 mM KH2PO4 pH 3.5 gradient
Experimental: Adsorption data were then obtained by HPLC. analysis on the test and control samples. Specifically, a 200 µl sample volume of PC was removed from each tube following the incubation period (special care being taken to ensure that no adsorbent particles were removed with the test samples). […] The addition of methanol lyses platelets and precipitates plasma proteins so that psoralen contained within the platelets is not excluded by the assay.
Since each of the psoralens were analyzed using the same type of HPLC assay, one can use the psoralens' relative retention times to rank them according to increasing hydrophobicity. […] Strong interactions with cells or plasma proteins could compete with adsorption, thereby interfering with resin binding.

Male Balb/c mice = tested on: Male Balb/c mice
Experimental: Male Balb/c mice were then injected with 0.1 ml of a compound solution via the tail vein. At least 3 mice were injected per dose level Saline only was used as a negative control. For a positive control, cyclophosphamide (cycloPP) was administered at a dose of 30 mg/kg. In the experimental group, the injections were repeated once per day for four days. In the positive control group, the sample was administered only once, on day three. On day 5, several microliters of blood were withdrawn from each subject and smeared on a glass slide. Cells were fixed in absolute methanol and stored in a slide rack.
For analysis, cells were stained with acridine orange and visualized under a fluorescence microscope by counting: (i) the number of reticulocytes per 5000 erythrocytes; and (ii) the number of micronucleated reticulocytes per 1000 reticulocytes. Reticulocytes were distinguished by their red fluorescence due to the presence of RNA. Micronuclei were distinguished by their green fluorescence due to the presence of DNA. The percentage of reticulocytes (%PCE) was then calculated. A decrease in the frequency of erythrocytes, represented by an increase in the percentage of reticulocytes, is an indication of bone marrow toxicity. The percentage of reticulocytes with micronuclei (%PCE with MN) was also calculated. An increase in %PCE with MN is a measure of elastogenicity.
After initial results were determined, the experiment was repeated using increased dose levels, until: (i) Micronucleus formation was seen; or (ii). Bone marrow toxicity was observed; or (iii) The lethal dose was reached; or (iv) A dose of 5 g/kg was administered.

HIV-1 = settings: 1 Minute Irradiation, HIV Starting Titer Approximately 5.4 Logs (Table 11)
R17 = assay: r-17 bacteriophage assay: R17 treated with compound and UVA, remaining titer by plaque count on Hfr 3000 bacteria; type: cell-based
Experimental: In the r-17 assay, the bacteriophage was placed in a solution with each compound tested and was then irradiated. The ability of the phage to subsequently infect bacteria and inhibit their growth was measured. The bacteriophage was selected for its relatively accessible nucleic acid such that the culture growth inhibition would accurately reflect nucleic acid damage by the test compounds. The bacteriophage assay for nucleic acid binding to test compounds offers a safe and inexpensive procedure to identify compounds likely to display efficient pathogen inactivation. Previous experiments support that the r-17 assay accurately measures HIV-1 sensitivity to similar compounds. […] Modified Eagles Medium (DMEM) to a final phage concentration of 10^9/mL. An aliquot (0.5 mL) was transferred to a 1.5 mL snap-top polyethylene tube. […] Louis, MO). The tubes were placed in a light device as described in EXAMPLE 1 and irradiated for between 1 and 10 minutes. […] To make the dilutions. a 0.100 mL aliquot of the irradiated solution of phage and test compound was added to the first dilution tube of 0.4 mL of media then 0.020 mL of this solution was added to the second tube of 0.5 mL medium (1:25). […] After the top agar hardened, the plates were incubated at 37 °C overnight. The plaque forming units were then counted the following morning and the titer of the phage remaining after phototreatment was calculated based on the dilution factors. The following controls were run: the "phage only" in which phage was not treated with test compound and not irradiated (listed as "starting titer" in the tables below); the "UV only" in which the phage was irradiated in the absence of test compound; and the "dark" control in which the phage/test compound solution was not irradiated before it was diluted and plated. Compounds described herein were also tested at a constant concentration for varying doses of UV light. […] The compound tested was added at the desired concentration and the samples were vortexed. […] Between each 1.0 J/cm^2 intervals, 100µL was removed from each sample and placed in the first corresponding dilution tube, then five sequential dilutions were performed for each compound tested, at all 3 irradiation doses, as described above in this example. […] The contents of each tube was poured into its own LB plate and the plates were incubated overnight at 37 °C. Plaques were counted by visual inspection the following morning.

Pseudomonas = assay: Bacterial inactivation by compound plus UVA, colony forming units; type: cell-based; settings: 16 µM; 5 J/cm^2 irradiation; starting titer 6.5 logs
Experimental: In this example bacterial inactivation by the photoreactive nucleic acid binding compounds described herein was measured as a function of the ability of the bacteria to subsequently replicate. A gram negative bacteria was chosen as representative of the more difficult bacterial strains to inactivate.
The bacteria a strain of Pseudomonas, was inoculated into LB with a sterile loop and grown overnight in a shaker at 37°C. Based on the approximation that one OD at 610 nm is equivalent to 5 x 10^8 colony forming units (cfu)/mL, a 1:10 dilution of the culture was measured on a spectrophotometer. (manufactured by Shimatsu). The bacterial culture was added to a solution of 15% fetal bovine serum in DMEM to a final bacteria concentration of approximately 10^6/mL. An aliquot (0.8 mL) was transferred to a 1.5 mL snap-top polyethylene tube. An aliquot (0.004-0.040 mL) of the test compound stock solution prepared in water, ethanol or dimethylsulfoxide at 0.80-8.0 mM was added to the tube. Compounds were tested at a concentration of 16 µM. The tubes were placed in a light device as described in EXAMPLE I and irradiated with 1.3 J/cm^2, 1.2 J/cm^2, and finally 2.5 J/cm^2, for a total of 5 J/cm^2. 150 µL were removed for testing after each pulse period. Sterile 13 mL dilution tubes were prepared; each test compound required one tube with 0.4 mL of LB broth and four tubes containing 0.5 mL of LB broth. To make the dilutions, a 0.050 mL aliquot of the irradiated solution of phage and test compound was added to the first dilution tube of […] of media then 0.050 mL of this solution was added to the second tube of 0.5 mL medium (1:10). The second solution was then diluted serially (1:10) into the remaining tubes. 100 µL of the original sample and each dilution are plated separately onto LB agar plates and incubated at 37 °C overnight. The colony forming units were then counted the following morning and the titer of the phage remaining after phototreatment was calculated based on the dilution factors.
The following controls were run: the "bacteria only" in which bacteria was not treated with test compound and not irradiated (listed as "starting titer" in the tables below); the "UV only" in which the bacteria was irradiated in the absence of test compound. Dark controls were not performed here for reasons set forth in Example 12 above.

[2] = tested on: Salmonella typhimurium tester strains TA97a, TA98, TA100, TA102, TA1537 and TA1538; settings: two-fold or greater increase in revertants above background and dose dependent response; TA100, TA102
Excerpt: The second property that is important in testing a compound for use in methods described herein is mutagenicity. The most widely used mutagen/carcinogen screening assay is the Ames test. This assay is described by D.M. Maron and B.N. Ames in Mutation Research 113:173 ( 1983) and a specific screen is described in detail in Example 17, below. The Ames test utilizes several unique strains of Salmonella typhimurium that are histidine- dependent for growth and that lack the usual DNA repair enzymes. The frequency of normal mutations that render the bacteria independent of histidine (i.e., the frequency of spontaneous revertants) is low. The test allows one to evaluate the impact of a compound on this revenant frequency.
Because some substances are not mutagenic by themselves, but are converted to a mutagen by metabolic action, the compound to be tested is mixed with the bacteria on agar plates along with the liver extract. The liver extract serves to mimic metabolic action in an animal.
The mixtures are allowed to incubate. Growth of bacteria (if any) is checked by counting colonies.
In this example the compounds described herein are tested for their dark mutagenicity using an Ames assay. The procedures used for the Salmonella mutagenicity test as described in detail by Maron and Ames were followed exactly. Maron, D.M. and B.N. Ames, Mutation Research 113: 173 ( 1983). A brief description for each procedure is given here. The tester strains TA97a, TA98, TA 100, TA102, TA1537 and TA1538 were obtained from Dr. Ames. TA97a, TA98, TA1537 and TA1538 are frameshift tester strains. TA100 and TA102 are base-substitution tester strains. Upon receipt each strain was cultured under a variety of conditions to confirm the genotypes specific to the strains.
The first tests done with the strains were to determine the range of spontaneous reversion for each of the strains. With each mutagenicity experiment the spontaneous reversion of the tester strains to histidine independence was measured and expressed as the number of spontaneous revertants per plate. This served as the background controls.
For all experiments, the pre-incubation procedure was used. In this procedure one vial of each tester strain was thawed and 20 µL of this culture was added to 6 mL of Oxoid Nutrient Broth #2. This solution was allowed to shake for 10 hours at 37°C. In the pre-incubation procedure, 0.1 mL of this overnight culture was added to each of the required number of sterile test tubes. To half of the tubes 0.5 mL of a 10% S-9 solution containing Aroclor 1254 induced rat liver extract (Molecular Toxicology Inc., Annapolis, MD), and MgCl2, KCl, glucose-6-phosphate, NADP, and sodium phosphate buffer (Sigma, St. Louis, Missouri) were added. To the other half of the tubes 0.5 mL of 0.2M sodium phospate buffer, pH 7.4, was used in place of the S-9 mixture (the - S9 samples). Finally 0.1 mL of the test solution containing either 0, 0.1, 0.5, 1, 5, 10, 50, 100, 250, or 500 µg/mL of the test compound was added. The 0.7 mL mixture was vonexed and then pre-incubated while shaking for 20 minutes at 37°C. After shaking, 2 mL of molten top agar supplemented with histidine and biotin were added to the 0.7 mL mixture and immediately poured onto a minimal glucose agar plate (volume of base agar was 20 mL). The top agar was allowed 30 minutes to solidify and then the plates were inverted and incubated for 44 hours at 37°C. After incubation the number of revertant colonies on each plate were counted.
Maron and Ames (1983) describe the conflicting views with regard to the statistical treatment of data generated from the test.

[3] = positive control, Dose 30 mg/kg administered only once, on day three, one value per experiment, 30 mg/kg

Compound: O=P1(N(CCCl)CCCl)NCCCO1 (stereo not shown) [CycloPP, cyclophosphamide, reference compound]
- PCE + MN (%) (Male Balb/c mice; [3]): 1.98 ± 0.40% and 1.76 ± 0.64%
- PCE/RBC (%) (Male Balb/c mice; [3]): 1.39 ± 0.41% and 1.65 ± 0.64% and 0.99 ±0.33%

Compound: Cc1cc(=O)oc2c(C)c3oc(CNCCCCN)c(C)c3cc12 [Compound 17, 5'-(6-amino-2-aza)hexyl-4,4',8-trimethylpsoralen]
- HIV Log Kill (HIV-1; 16 µM): 1.2
- HIV Log Kill (HIV-1; 32 µM): 2.9
- HIV Log Kill (HIV-1; 64 µM): 3.4
- efficiency at inactivating R17 compared with AMT (R17; constant concentration, varying doses of UV light 1.0-3.0 J/cm^2 (FIGS. 11-17)): more efficient at inactivating R17 than was AMT
- bone marrow toxicity or micronucleus formation (Male Balb/c mice; experiment repeated using increased dose levels): the acutely lethal dose was reached before there were any signs of bone marrow toxicity or micronucleus formation

Compound: COc1c2occc2cc2ccc(=O)oc12 [Compound 8-MOP, 8-Methoxypsoralen, reference compound]
- R17 log kill (32 µM) (R17; 32 µM, 1 Minute Irradiation, Starting Titer Approx. 7.5 Logs (Table 6)): 0
- log kill of bacteria (Pseudomonas) (Pseudomonas): 1.9 logs
- base-substitution mutagenicity (Ames, summary) [2]: weak base-substitution mutagen in TA102 at 500µg/plate

Continued, values first:

- HPLC retention time (rough estimate of hydrophobicity) [1]: 7.8 min
Compound: CC[N+](CC)(CC)Cc1c(C)oc2c(C)c3oc(=O)cc(C)c3cc12 [Psoralen A, 4'-(triethylamino) methyl-4,5',8-trimethylpsoralen]

- HPLC retention time (rough estimate of hydrophobicity) [1]: 20.0 min
Compound: COc1c2occc2c(Br)c2ccc(=O)oc12 [Psoralen B, 5-bromo-8-methoxypsoralen]

- HPLC retention time (rough estimate of hydrophobicity) [1]: 12.0 min
Compound: CCN(CC)CCCOc1c2occc2c(Br)c2ccc(=O)oc12 [Psoralen C, 5-bromo-8-(diethylaminopropyloxy)-psoralen]
